Several values for one entry are separate records, joined by “and”; a condition that tells them apart may be missing. Equal entries are not always repeated. Numbers after ± are expanded uncertainties.
What was measured:
[1] = 101 kPa, Liquid; for viscosity: Concentric cylinders viscometry; for mass density: Vibrating tube method
[2] = refractive index (Na D-line) (dimensionless); settings: 101.33 kPa, Liquid, Standard Abbe refractometry
[3] = xn = mol fraction of the nth substance listed; settings: 101 kPa, Liquid, x2 = 0; for viscosity: Concentric cylinders viscometry; for mass density: Vibrating tube method
[4] = refractive index (Na D-line) (dimensionless); xn = mol fraction of the nth substance listed; settings: 101 kPa, Liquid, Standard Abbe refractometry, x2 = 0

CC(O)CN (stereo not given) [1-amino-2-propanol]
viscosity ([1]; 288.15 K): 43.7 ± 1.4 mPa·s | mass density ([1]; 288.15 K): 964.544 ± 0.8 kg/m3 | viscosity ([1]; 293.15 K): 31.68 ± 1 mPa·s | mass density ([1]; 293.15 K): 960.598 ± 0.79 kg/m3 | viscosity ([1]; 298.15 K): 23.54 ± 0.75 mPa·s | mass density ([1]; 298.15 K): 956.618 ± 0.79 kg/m3 | viscosity ([1]; 303.15 K): 17.89 ± 0.57 mPa·s and 17.9 ± 0.57 mPa·s | mass density ([1]; 303.15 K): 952.612 ± 0.78 kg/m3 | viscosity ([1]; 308.15 K): 13.88 ± 0.44 mPa·s | mass density ([1]; 308.15 K): 948.577 ± 0.78 kg/m3 | viscosity ([1]; 313.15 K): 10.96 ± 0.35 mPa·s | mass density ([1]; 313.15 K): 944.515 ± 0.77 kg/m3 | viscosity ([1]; 318.15 K): 8.798 ± 0.28 mPa·s | mass density ([1]; 318.15 K): 940.423 ± 0.77 kg/m3 | viscosity ([1]; 323.15 K): 7.166 ± 0.23 mPa·s | mass density ([1]; 323.15 K): 936.293 ± 0.76 kg/m3 | viscosity ([1]; 328.15 K): 5.915 ± 0.19 mPa·s | mass density ([1]; 328.15 K): 932.13 ± 0.76 kg/m3 | viscosity ([1]; 333.15 K): 4.986 ± 0.16 mPa·s | mass density ([1]; 333.15 K): 927.93 ± 0.75 kg/m3 | refractive index ([2]; 288.15 K): 1.45 ± 0.0005 | refractive index ([2]; 293.15 K): 1.448 ± 0.0005 | refractive index ([2]; 298.15 K): 1.446 ± 0.0005 | refractive index ([2]; 303.15 K): 1.444 ± 0.0005 | refractive index ([2]; 308.15 K): 1.4419 ± 0.0005 | refractive index ([2]; 313.15 K): 1.4399 ± 0.0005 | refractive index ([2]; 318.15 K): 1.4378 ± 0.0005 | refractive index ([2]; 323.15 K): 1.4358 ± 0.0005 | refractive index ([2]; 328.15 K): 1.4337 ± 0.0005 | refractive index ([2]; 333.15 K): 1.4315 ± 0.0005

CCCCO [butan-1-ol]
viscosity ([1]; 288.15 K): 3.367 ± 0.1 mPa·s | mass density ([1]; 288.15 K): 813.353 ± 0.23 kg/m3 | viscosity ([1]; 293.15 K): 2.914 ± 0.089 mPa·s | mass density ([1]; 293.15 K): 809.564 ± 0.23 kg/m3 | viscosity ([1]; 298.15 K): 2.539 ± 0.078 mPa·s | mass density ([1]; 298.15 K): 805.752 ± 0.24 kg/m3 | viscosity ([1]; 303.15 K): 2.228 ± 0.068 mPa·s | mass density ([1]; 303.15 K): 801.912 ± 0.24 kg/m3 | viscosity ([1]; 308.15 K): 1.962 ± 0.06 mPa·s | mass density ([1]; 308.15 K): 798.039 ± 0.24 kg/m3 | viscosity ([1]; 313.15 K): 1.739 ± 0.054 mPa·s | mass density ([1]; 313.15 K): 794.13 ± 0.24 kg/m3 | viscosity ([1]; 318.15 K): 1.547 ± 0.048 mPa·s | mass density ([1]; 318.15 K): 790.18 ± 0.24 kg/m3 | viscosity ([1]; 323.15 K): 1.382 ± 0.043 mPa·s | mass density ([1]; 323.15 K): 786.179 ± 0.24 kg/m3 | viscosity ([1]; 328.15 K): 1.239 ± 0.038 mPa·s | mass density ([1]; 328.15 K): 782.125 ± 0.24 kg/m3 | viscosity ([1]; 333.15 K): 1.138 ± 0.035 mPa·s | mass density ([1]; 333.15 K): 778.012 ± 0.24 kg/m3 | refractive index ([2]; 288.15 K): 1.4013 ± 0.0004 | refractive index ([2]; 293.15 K): 1.3992 ± 0.0004 | refractive index ([2]; 298.15 K): 1.3972 ± 0.0004 | refractive index ([2]; 303.15 K): 1.3951 ± 0.0004 | refractive index ([2]; 308.15 K): 1.393 ± 0.0004 | refractive index ([2]; 313.15 K): 1.391 ± 0.0004 | refractive index ([2]; 318.15 K): 1.3888 ± 0.0004 | refractive index ([2]; 323.15 K): 1.3867 ± 0.0004 | refractive index ([2]; 328.15 K): 1.3846 ± 0.0004 | refractive index ([2]; 333.15 K): 1.3824 ± 0.0004

CCCCO [butan-1-ol] + CC(O)CN
viscosity ([3]; 288.15 K): 3.367 ± 0.1 mPa·s | mass density ([3]; 288.15 K): 813.353 ± 0.23 kg/m3 | viscosity ([3]; 293.15 K): 2.914 ± 0.089 mPa·s | mass density ([3]; 293.15 K): 809.564 ± 0.23 kg/m3 | viscosity ([3]; 298.15 K): 2.539 ± 0.078 mPa·s | mass density ([3]; 298.15 K): 805.752 ± 0.24 kg/m3 | viscosity ([3]; 303.15 K): 2.228 ± 0.068 mPa·s | mass density ([3]; 303.15 K): 801.912 ± 0.24 kg/m3 | viscosity ([3]; 308.15 K): 1.962 ± 0.06 mPa·s | mass density ([3]; 308.15 K): 798.039 ± 0.24 kg/m3 | viscosity ([3]; 313.15 K): 1.739 ± 0.054 mPa·s | mass density ([3]; 313.15 K): 794.13 ± 0.24 kg/m3 | viscosity ([3]; 318.15 K): 1.547 ± 0.048 mPa·s | mass density ([3]; 318.15 K): 790.18 ± 0.24 kg/m3 | viscosity ([3]; 323.15 K): 1.382 ± 0.043 mPa·s | mass density ([3]; 323.15 K): 786.179 ± 0.24 kg/m3 | viscosity ([3]; 328.15 K): 1.239 ± 0.038 mPa·s | mass density ([3]; 328.15 K): 782.125 ± 0.24 kg/m3 | viscosity ([3]; 333.15 K): 1.138 ± 0.035 mPa·s | mass density ([3]; 333.15 K): 778.012 ± 0.24 kg/m3 | refractive index ([4]; 288.15 K): 1.4013 ± 0.0004 | refractive index ([4]; 293.15 K): 1.3992 ± 0.0004 | refractive index ([4]; 298.15 K): 1.3972 ± 0.0004 | refractive index ([4]; 303.15 K): 1.3951 ± 0.0004 | refractive index ([4]; 308.15 K): 1.393 ± 0.0004 | refractive index ([4]; 313.15 K): 1.391 ± 0.0004 | refractive index ([4]; 318.15 K): 1.3888 ± 0.0004 | refractive index ([4]; 323.15 K): 1.3867 ± 0.0004 | refractive index ([4]; 328.15 K): 1.3846 ± 0.0004 | refractive index ([4]; 333.15 K): 1.3824 ± 0.0004

CCC(C)O (stereo not given) [butan-2-ol]
viscosity ([1]; 288.15 K): 4.59 ± 0.14 mPa·s | mass density ([1]; 288.15 K): 810.524 ± 0.23 kg/m3 | viscosity ([1]; 293.15 K): 3.738 ± 0.12 mPa·s | mass density ([1]; 293.15 K): 806.487 ± 0.24 kg/m3 | viscosity ([1]; 298.15 K): 3.074 ± 0.094 mPa·s | mass density ([1]; 298.15 K): 802.373 ± 0.24 kg/m3 | viscosity ([1]; 303.15 K): 2.552 ± 0.078 mPa·s | mass density ([1]; 303.15 K): 798.174 ± 0.24 kg/m3 | viscosity ([1]; 308.15 K): 2.144 ± 0.066 mPa·s | mass density ([1]; 308.15 K): 793.881 ± 0.24 kg/m3 | viscosity ([1]; 313.15 K): 1.818 ± 0.056 mPa·s | mass density ([1]; 313.15 K): 789.487 ± 0.24 kg/m3 | viscosity ([1]; 318.15 K): 1.558 ± 0.048 mPa·s | mass density ([1]; 318.15 K): 784.988 ± 0.24 kg/m3 | viscosity ([1]; 323.15 K): 1.348 ± 0.042 mPa·s | mass density ([1]; 323.15 K): 780.38 ± 0.24 kg/m3 | viscosity ([1]; 328.15 K): 1.179 ± 0.037 mPa·s | mass density ([1]; 328.15 K): 775.656 ± 0.24 kg/m3 | viscosity ([1]; 333.15 K): 1.054 ± 0.033 mPa·s | mass density ([1]; 333.15 K): 770.82 ± 0.24 kg/m3 | refractive index ([2]; 288.15 K): 1.3995 ± 0.0004 | refractive index ([2]; 293.15 K): 1.3974 ± 0.0004 | refractive index ([2]; 298.15 K): 1.3952 ± 0.0004 | refractive index ([2]; 303.15 K): 1.393 ± 0.0004 | refractive index ([2]; 308.15 K): 1.3907 ± 0.0004 | refractive index ([2]; 313.15 K): 1.3883 ± 0.0004 | refractive index ([2]; 318.15 K): 1.3859 ± 0.0004 | refractive index ([2]; 323.15 K): 1.3835 ± 0.0004 | refractive index ([2]; 328.15 K): 1.381 ± 0.0004 | refractive index ([2]; 333.15 K): 1.3784 ± 0.0004

CCC(C)O (stereo not given) [butan-2-ol] + CC(O)CN
viscosity ([3]; 288.15 K): 4.59 ± 0.14 mPa·s | mass density ([3]; 288.15 K): 810.524 ± 0.23 kg/m3 | viscosity ([3]; 293.15 K): 3.738 ± 0.12 mPa·s | mass density ([3]; 293.15 K): 806.487 ± 0.24 kg/m3 | viscosity ([3]; 298.15 K): 3.074 ± 0.094 mPa·s | mass density ([3]; 298.15 K): 802.373 ± 0.24 kg/m3 | viscosity ([3]; 303.15 K): 2.552 ± 0.078 mPa·s | mass density ([3]; 303.15 K): 798.174 ± 0.24 kg/m3 | viscosity ([3]; 308.15 K): 2.144 ± 0.066 mPa·s | mass density ([3]; 308.15 K): 793.881 ± 0.24 kg/m3 | viscosity ([3]; 313.15 K): 1.818 ± 0.056 mPa·s | mass density ([3]; 313.15 K): 789.487 ± 0.24 kg/m3 | viscosity ([3]; 318.15 K): 1.558 ± 0.048 mPa·s | mass density ([3]; 318.15 K): 784.988 ± 0.24 kg/m3 | viscosity ([3]; 323.15 K): 1.348 ± 0.042 mPa·s | mass density ([3]; 323.15 K): 780.38 ± 0.24 kg/m3 | viscosity ([3]; 328.15 K): 1.179 ± 0.037 mPa·s | mass density ([3]; 328.15 K): 775.656 ± 0.24 kg/m3 | viscosity ([3]; 333.15 K): 1.054 ± 0.033 mPa·s | mass density ([3]; 333.15 K): 770.82 ± 0.24 kg/m3 | refractive index ([4]; 288.15 K): 1.3995 ± 0.0004 | refractive index ([4]; 293.15 K): 1.3974 ± 0.0004 | refractive index ([4]; 298.15 K): 1.3952 ± 0.0004 | refractive index ([4]; 303.15 K): 1.393 ± 0.0004 | refractive index ([4]; 308.15 K): 1.3907 ± 0.0004 | refractive index ([4]; 313.15 K): 1.3883 ± 0.0004 | refractive index ([4]; 318.15 K): 1.3859 ± 0.0004 | refractive index ([4]; 323.15 K): 1.3835 ± 0.0004 | refractive index ([4]; 328.15 K): 1.381 ± 0.0004 | refractive index ([4]; 333.15 K): 1.3784 ± 0.0004

— the NIST ThermoML archive (doi:10.1021/je401036f)
